In patent publication US20240150339A1, “Compounds and Their Use as PDE4 Activators” (Mironid Limited, priority 2021, published 2024):

These compounds were tested on m-IMCD3 cells (assay: Inhibition of PGE2-stimulated in vitro cyst formation in 3D culture of m-IMCD3 cells). Conditions: Mus musculus, mIMCD3, 144 h; 10 μM test compound; mean cyst area (%) compared to 100% for (DMSO + PGE2) and 0% for DMSO control; 100 nM PGE2; 6 days; read-out: % Cyst area after incubation with 10 μM test compound.
Type: cell-based, mouse
Procedure: HEK 293 and MDCK cells (Public Health England, Cell Culture Collections) were maintained in Dulbecco's Modified Eagle's Medium (DMEM) supplemented with 10% (v/v) fetal bovine serum (FBS) (Seralab), 2 mM L-glutamine and 100 U/ml penicillin streptomycin cocktail (ThermoFisher); termed complete media. Clonal HEK 293 cell lines were maintained in complete media supplemented with 0.6 mg/mL G418 (Enzo Life Sciences). Mouse inner medullary collecting duct (m-IMCD3) cells [American Type Culture Collection (ATCC)] were maintained in media consisting of DMEM/Hams F-12 50/50 Mix (DMEM F12; Corning) supplemented with penicillin streptomycin cocktail (100 U/ml) and FBS (10% v/v) (DMEM F12-10% FBS).
The mouse Inner Medullary Collecting Duct cell line (m-IMCD3) spontaneously forms cystic spheroids in 3D culture with a Type 1 collagen/Matrigel extracellular matrix. This process can be stimulated with agents which raise intracellular cAMP, such as PGE2, and is used as an in vitro model for the formation of cystic structures in the kidneys of patients with ADPKD.
Rat Collagen I (Fisher Scientific) is prepared on ice by neutralising with 1M NaOH and diluting with a 2×volume of DMEM/F12+10% FBS for coating plate (coating mix) and a 2.2 volume of DMEM/F12+10% FBS for cell plating (plating mix). This is mixed 1:1.1 with ice cold Matrigel (Corning) for coating plates (coating mix), and 1:0.95 with Matrigel for cell plating (plating mix).
The assay is conducted in the wells of a 96-well plate culture dish using a total volume of 130 μl of collagen/Matrigel/DMEM F12-10% FBS suspension in growth media for each matrix plug per individual well. Initially, 30 μl of collagen/Matrigel/DMEM F12-10% FBS (coating mix) is added into the well of a 96 well plate and the collagen is set to a gel by incubating at 37° C. for at least 15 minutes. A second layer of 100 μl collagen/Matrigel suspension (plating mix) containing m-IMCD3 cells (2.75×10^6 m-IMCD3 cells per 96-well plate) is layered over the coating mix and the collagen/Matrigel/cell mix again set to a gel by incubating at 37° C. Cell cultures are maintained at 37° C. in an atmosphere of 5% CO2, 95% air.
Between 18 and 24h after plating, test compound(s) as DMSO stock solutions [0.1% (v/v) final DMSO concentration] and PGE2 (100 nM final concentration) in DMEM F12-10% FBS are added in quadruplicate wells per condition. Media, togetherwith the test compound and PGE2 are replenished after 2 or 3 days. After 6 days of culture z stack images of the wells are captured using the Nikon Eclipse Ti2-E microscope. Nikon General Analysis software is used to measure the following parameters in each well: the mean cyst area, the number of cysts, and the total cyst area.
PDE4 long form activators inhibited in vitro cyst formation in m-IMCD3 cells. Data are shown in FIG. 2 and Table 5 as mean cyst area (%), compared to 100% for (DMSO+PGE2) and 0% for DMSO control.

Point of comparison: O=C(N[C@@H]1c2ccccc2C[C@@H]1O)c1ccc2nc(C3CCNCC3)sc2c1 [Example 130, N-((1R,2S)-2-hydroxy-2,3-dihydro-1H-inden-1-yl)-2-(piperidin-4-yl)benzo[d]thiazole-6-carboxamide], activity at 10 µM -2%. Against it:
- O=C(N[C@@H]1c2ccccc2C[C@H]1O)c1ccc2nc(C3CCNCC3)sc2c1 [Example 128, N-((1R,2R)-2-hydroxy-2,3-dihydro-1H-inden-1-yl)-2-(piperidin-4-yl)benzo[d]thiazole-6-carboxamide] — higher, 3%
- O=C(NC1CCCC1)c1ccc2nc(C3CCNCC3)sc2c1 [Example 134, N-cyclopentyl-2-(piperidin-4-yl)benzo[d]thiazole-6-carboxamide] — higher, 16%
- O=C(NC1CCOCC1)c1ccc2nc(C3CCNCC3)sc2c1 [Example 138, 2-(piperidin-4-yl)-N-(tetrahydro-2H-pyran-4-yl)benzo[d]thiazole-6-carboxamide] — higher, 20%
- CCN1CCC(c2nc3ccc(C(=O)N[C@@H]4c5ccccc5C[C@@H]4O)cc3s2)CC1 [Example 166, 2-(1-ethylpiperidin-4-yl)-N-((1R,2S)-2-hydroxy-2,3-dihydro-1H-inden-1-yl)benzo[d]thiazole-6-carboxamide] — lower, -10%
- O=C(NC1CCCC1)c1ccc2nc(C3CCN(CCO)CC3)sc2c1 [Example 171, N-cyclopentyl-2-(1-(2-hydroxyethyl)piperidin-4-yl)benzo[d]thiazole-6-carboxamide] — higher, 13%
- COCCOCCN1CCC(c2nc3ccc(C(=O)N[C@H]4CCOc5ccccc54)cc3s2)CC1 [Example 175, (S)-N-(chroman-4-yl)-2-(1-(2-(2-methoxyethoxy)ethyl)piperidin-4-yl)benzo[d]thiazole-6-carboxamide] — lower, -14%
- Cc1cc(C(=O)NC2CCCC2)cc2sc(C3CCNCC3)nc12 [Example 181, N-cyclopentyl-4-methyl-2-(piperidin-4-yl)benzo[d]thiazole-6-carboxamide] — higher, 13%
- Cc1cc(C(=O)N[C@H]2CCOc3ccccc32)cc2sc(C3CCNCC3)nc12 [Example 186, (S)-N-(chroman-4-yl)-4-methyl-2-(piperidin-4-yl)benzo[d]thiazole-6-carboxamide] — higher, 4%
- CCN1CCC(c2nc3cc(C)c(C(=O)N[C@H]4CCOc5ccccc54)cc3s2)CC1 [Example 191, (S)-N-(chroman-4-yl)-2-(1-ethylpiperidin-4-yl)-5-methylbenzo[d]thiazole-6-carboxamide] — higher, 3%
- CCN1CCC(c2nc3ccc(C(=O)NC4CCCC4)c(C)c3s2)CC1 [Example 193, N-cyclopentyl-2-(1-ethylpiperidin-4-yl)-7-methylbenzo[d]thiazole-6-carboxamide] — higher, 2%
- CCN1CCC(c2nc3ccc(C(=O)N[C@H]4CCc5ccccc54)c(C)c3s2)CC1 [Example 196, (S)-N-(2,3-dihydro-1H-inden-1-yl)-2-(1-ethylpiperidin-4-vy)-7-methylbenzo[d]thiazole-6-carboxamide] — higher, 10%
- COc1cc2nc(C3CCNCC3)sc2cc1C(=O)NC1CCOCC1 [Example 200, 5-methoxy-2-(piperidin-4-yl)-N-(tetrahydro-2H-pyran-4-yl)benzo[d]thiazole-6-carboxamide] — higher, 3%
- Cc1cc(C(=O)NC2CCCC2)cc2sc(N3CCNCC3)nc12 [Example 206, N-cyclopentyl-4-methyl-2-(piperazin-1-yl)benzo[d]thiazole-6-carboxamide] — higher, 14%
- CCN1CCN(c2nc3c(C)cc(C(=O)NC4CCOCC4)cc3s2)CC1 [Example 210, 2-(4-ethylpiperazin-1-yl)-4-methyl-N-(tetrahydro-2H-pyran-4-yl)benzo[d]thiazole-6-carboxamide] — higher, 3%
- Cc1c(C(=O)N[C@H]2CCOc3ccccc32)ccc2nc(N3CCNCC3)sc12 [Example 219, (S)-N-(chroman-4-yl)-7-methyl-2-(piperazin-1-yl)benzo[d]thiazole-6-carboxamide] — higher, 2%
- CCN1CCN(c2nc3c(OC)cc(C(=O)NC4CCCC4)cc3s2)CC1 [Example 222, N-cyclopentyl-2-(4-ethylpiperazin-1-yl)-4-methoxybenzo[d]thiazole-6-carboxamide] — higher, 1%
- COc1cc2nc(N3CCNCC3)sc2cc1C(=O)N[C@H]1CCc2ccccc21 [Example 224, (S)-N-(2,3-dihydro-1H-inden-1-yl)-5-methoxy-2-(piperazin-1-yl)benzo[d]thiazole-6-carboxamide] — higher, 8%
- Cc1cc(C(=O)N[C@H]2CCOc3ccccc32)c(C)c2sc(C3CCNCC3)nc12 [Example 230, (S)-N-(chroman-4-yl)-4,7-dimethyl-2-(piperidin-4-yl)benzo[d]thiazole-6-carboxamide] — higher, 25%
- CN1CCC(c2nc3c(Cl)cc(C(=O)NC4CCCC4)cc3s2)CC1 [Example 231, 4-chloro-N-cyclopentyl-2-(1-methylpiperidin-4-yl)benzo[d]thiazole-6-carboxamide] — higher, 1%
- CC(C)NC(=O)c1cc(C2CC2)c2nc(C3CCNCC3)sc2c1 [Example 232, 4-cyclopropyl-N-isopropyl-2-(piperidin-4-yl)benzo[d]thiazole-6-carboxamide] — the same, -2%
- O=C(NC1CCC1)c1cc(Cl)c2nc(N3CCNCC3)sc2c1 [Example 234, 4-chloro-N-cyclobutyl-2-(piperazin-1-yl)benzo[d]thiazole-6-carboxamide] — higher, 3%
- O=C(NC1CCCC1)c1cc(Br)c2nc(N3C4CCC3CNC4)sc2c1 [Example 237, 2-(3,8-diazabicyclo[3.2.1]octan-8-yl)-4-bromo-N-cyclopentylbenzo[d]thiazole-6-carboxamide] — higher, 11%
- O=C(NC1CCC(F)(F)CC1)c1ccc2nc(N3C4CCC3CN(CCCO)C4)sc2c1 [Example 243, N-(4,4-difluorocyclohexyl)-2-(3-(3-hydroxypropyl)-3,8-diazabicyclo[3.2.1]octan-8-yl)benzo[d]thiazole-6-carboxamide] — higher, 6%
- CC(CO)c1cc(C(=O)NC2CCCC2)cc2sc(N3C4CCC3CNC4)nc12 (centres unmarked) [Example 249, N-cyclopentyl-2-(3,8-diazabicyclo[3.2.1]octan-8-yl)-4-(1-hydroxypropan-2-yl)-benzo[d]thiazole-6-carboxamide] — higher, 9%
- O=C(NC1CCCC1)c1ccc2nc(N3CC4(CNC4)C3)sc2c1 [Example 255, N-cyclopentyl-2-(2,6-diazaspiro[3.3]heptan-2-yl)benzo[d]thiazole-6-carboxamide] — higher, 11%
- O=C(NC1CCCC1)c1ccc2nc(N3CCCC4NCCC43)sc2c1 (centres unmarked) [Example 258, N-cyclopentyl-2-(octahydro-4H-pyrrolo[3,2-b]pyridin-4-yl)benzo[d]thiazole-6-carboxamide] — higher, 11%
- CN1C[C@@H]2CN(c3nc4ccc(C(=O)NC5CCCCC5)cc4s3)C[C@@H]2C1 [Example 261, N-cyclohexyl-2-((3aR,6aS)-5-methylhexahydropyrrolo[3,4-c]pyrrol-2 (1H)-yl)benzo[d]thiazole-6-carboxamide] — higher, 3%
- CN(C(=O)c1ccc2nc(C3CCNCC3)sc2c1)C1CCCC1 [Example 271, N-cyclopentyl-N-methyl-2-(piperidin-4-yl)benzo[d]thiazole-6-carboxamide] — higher, 27%
- CN1CCC(c2nc3ccc(C(=O)N[C@@H]4CCC[C@H]4O)cc3s2)CC1 [Example 274, N-[(1R,2R)-2-hydroxycyclopentyl]-2-(1-methylpiperidin-4-yl)benzo[d]thiazole-6-carboxamide] — higher, 16%
- CCN1CCC(c2nc3ccc(C(=O)NCc4ccncc4)cc3s2)CC1 [Example 275, 2-(1-ethylpiperidin-4-yl)-N-(pyridin-4-ylmethyl)benzo[d]thiazole-6-carboxamide] — the same, -2%

Same assay, conditions: result in words

In the case of CCN1CCC(c2nc3cc(C)c(C(=O)N[C@H]4CCOc5ccccc54)cc3s2)CC1 [Example 191, (S)-N-(chroman-4-yl)-2-(1-ethylpiperidin-4-yl)-5-methylbenzo[d]thiazole-6-carboxamide], the “Inhibition of PGE2-stimulated cyst formation in 3D culture of m-IMCD3 cells (FIG. 2)” value is reported as “concentration-dependent inhibition”.
